One assay deals with Cat L (UniProt P07711). Nature of the assay: Cathepsin enzyme inhibition assay (fluorogenic peptide substrate Z-Val-Val-Arg-AMC), Cathepsin L. The format is biochemical, human and mouse. To be noted: enzyme 1 nM, substrate 20 μM, pH 6.5; read-out: CatL IC50. A digest of the protocol:
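Fluorogenic cleavage of Z-Val-Val-Arg-AMC (20 μM) by 1 nM Cat L was monitored at ex 360/em 465 nm for 20 min, the linear phase. The buffer was 100 mM potassium phosphate pH 6.5 with 5 mM EDTA and DTT. IC50 values were derived by standard methods, in μM.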

The target of the next assay is Cathepsin S (UniProt P25774). Briefly: Cathepsin enzyme inhibition assay (fluorogenic peptide substrate Z-Val-Val-Arg-AMC), Cathepsin S. The format is biochemical, human and mouse. To be noted: enzyme 1 nM, substrate 20 μM, pH 6.5; read-out: CatS IC50. A digest of the protocol:
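Compounds were combined with 1 nM human or mouse enzyme, and substrate then started the reaction. The buffer was potassium phosphate (100 mM, pH 6.5) containing EDTA-Na 5 mM, Triton X-100 0.001% and […] 5 mM.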

The IC50 is the concentration that inhibits the measured activity by half.

On to `Cc1cc(N2C[C@H](S(=O)(=O)c3ccccc3C(F)(F)F)C[C@H]2C(=O)NC2(C#N)CC2)n(-c2cccnn2)n1` [Example 317, (2S,4R)-1-(5-Methyl-2-pyridazin-3-yl-2H-pyrazol-3-yl)-4-(2-trifluoromethyl-benzenesulfonyl)-pyrrolidine-2-carboxylic acid (1-cyano-cyclopropyl)-amide], for which the figures for the IC50 at Cat L and on Cathepsin S were at least 25000 nM and 22.8 nM, respectively.

In the case of `CC(C)(C)OC(=O)N1C[C@H](S(=O)(=O)c2ccc(OCC(F)(F)F)cc2C(F)(F)F)C[C@H]1C(=O)NC1(C#N)CC1` [Example 208, (2S,4R)-2-(1-Cyano-cyclopropylcarbamoyl)-4-[4-(2,2,2-trifluoro-ethoxy)-2-trifluoromethyl-benzenesulfonyl]-pyrrolidine-1-carboxylic acid tert-butyl ester], the IC50 was at least 25000 nM on Cat L and 0.8 nM on Cathepsin S.

As to `Cc1cc(N2C[C@H](S(=O)(=O)c3ccccc3Cl)C[C@H]2C(=O)NC2(C#N)CC2)n(-c2ccc(C(F)(F)F)cc2)n1` [Example 253, (2S,4R)-4-(2-Chloro-benzenesulfonyl)-1-[5-methyl-2-(4-trifluoromethyl-phenyl)-2H-pyrazol-3-yl]-pyrrolidine-2-carboxylic acid (1-cyano-cyclopropyl)-amide], the values for the IC50 on Cat L and at Cathepsin S were 1380 nM and 1.1 nM, respectively.

For the molecule `Cc1cc(N2C[C@H](S(=O)(=O)c3ccc(-n4cccn4)cc3Cl)C[C@H]2C(=O)NC2(C#N)CC2)n(C2CCC2)n1` [Example 491, (2S,4R)-4-(2-Chloro-4-pyrazol-1-yl-benzenesulfonyl)-1-(2-cyclobutyl-5-methyl-2H-pyrazol-3-yl)-pyrrolidine-2-carboxylic acid (1-cyano-cyclopropyl)-amide], the IC50 turned out to be 5280 nM on Cat L and 0.655 nM on Cathepsin S.

Consider `CC1(C(=O)N2C[C@H](S(=O)(=O)c3ccc(OCC(F)(F)F)cc3Cl)C[C@H]2C(=O)NC2(C#N)CC2)CC1` [Example 175, (2S,4R)-4-[2-Chloro-4-(2,2,2-trifluoro-ethoxy)-benzenesulfonyl]-1-(1-methyl-cyclopropanecarbonyl)-pyrrolidine-2-carboxylic acid (1-cyano-cyclopropyl)-amide], for which the concentration for half-maximal inhibition (IC50) came to 15900 nM on Cat L and 0.49 nM on Cathepsin S.

With `CC(C)(C)OC(=O)N1C[C@H](S(=O)(=O)c2ccc(F)cc2Cl)C[C@H]1C(=O)NC1(C#N)CC1` [Example 124, (2S,4R)-4-(2-Chloro-4-fluoro-benzenesulfonyl)-2-(1-cyano-cyclopropylcarbamoyl)-pyrrolidine-1-carboxylic acid tert.-butyl ester], the IC50 was at least 25000 nM on Cat L and 12.5 nM at Cathepsin S.

`N#CC1(NC(=O)[C@@H]2C[C@@H](S(=O)(=O)c3ccc(OCC(F)(F)F)cc3Cl)CN2C(=O)C2(C#N)CC2)CC1` [Example 243, (2S,4R)-4-[2-Chloro-4-(2,2,2-trifluoro-ethoxy)-benzenesulfonyl]-1-(1-cyano-cyclopropanecarbonyl)-pyrrolidine-2-carboxylic acid (1-cyano-cyclopropyl)-amide]: the IC50 on Cat L was found to be 12300 nM; on Cathepsin S, 0.455 nM.

Regarding `CC(C)(C)OC(=O)N1C[C@H](S(=O)(=O)c2ccc(-n3cnc4ccccc43)cc2C(F)(F)F)C[C@H]1C(=O)NC1(C#N)CC1` [Example 9, (2S,4R)-4-(4-Benzoimidazol-1-yl-2-trifluoromethyl-benzenesulfonyl)-2-(1-cyano-cyclopropylcarbamoyl)-pyrrolidine-1-carboxylic acid tert-butyl ester], the results for the IC50 on Cat L and on Cathepsin S were at least 25000 nM and 0.6 nM, respectively.

Turning to `Cc1cc(N2C[C@H](S(=O)(=O)c3ccccc3Cl)C[C@H]2C(=O)NC2(C#N)CC2)n(Cc2ccccc2)n1` [Example 379, (2S,4R)-1-(2-Benzyl-5-methyl-2H-pyrazol-3-yl)-4-(2-chloro-benzenesulfonyl)-pyrrolidine-2-carboxylic acid (1-cyano-cyclopropyl)-amide], the IC50 at Cat L was found to be 2710 nM; on Cathepsin S it was 1.75 nM.
